Patent US7122335B1, “Compounds and methods to enhance rAAV transduction” (priority 1999, dated 2006)
“Also recorded” adds a separate entry of the source. Counter-ions that a name gives are not always drawn. Like-named read-outs stand apart in the source and are kept apart here. Peptide text beside a SMILES is read from it.

How the values were obtained:
Format in all cases: cell-based
[1] = system: primary human fibroblasts
Experimental: FIG. 6. Primary confluent fibroblasts were infected with AV.GFP3ori virus at an MOI=1000 particles/cell following treatment with brefeldin A (10 μg/ml), vinblastine (22 μM), cytochalasin B (1 μM), NH4Cl (2 mM), chloroquine (20 μm), LLnL (400 μM), and Z-LLL (4 μM), final concentration indicated in brackets. Cells were harvested at 96 hours post-infection and the transduction efficiency was compared to untreated rAAV infected cells by FACS analysis for GFP expression. To control for non-specific effects caused by toxicity of the compounds, the percentage of live cells was also assessed by the absence of propidium iodide incorporation.
80% confluent human primary fibroblasts were infected with AV.GFP3ori at an moi of 1000 DNA particles/cell. FIG. 16A depicts GFP transgene expression in the absence (left photographs) and presence of 40 μM LLnL (right photographs) at 96 hours post-infection. […] Top and bottom panels represent bright field and FITC-channel fluorescent photomicrographs, respectively. The mean (+/−SEM, N=3) percentage of cells transduced with rAAV, as measured by FACS sorting of GFP expressing cells, is presented in the bar graph of FIG. 16B. […] In this study, rAAV from infected cells was first immunoprecipitated with anti-VP1,2,3 (AAV-2 capsid) monoclonal antibody followed by Western blot detection of ubiquitin side chains using an anti-ubiquitin monoclonal antibody. […] Epithelia were infected with AV.GFP3ori (10,000 particles/cell) from the basolateral surface following treatment with ubiquitin ligase inhibitor dipeptides (0.2 mM H-Leu-Ala-OH and 0.2 mM H-His-Ala-OH).
Initial studies were performed in confluent primary human fibroblasts since dose titrations and toxicity could be quickly assessed. Selected compounds were used to treat fibroblast monolayers prior to rAAV infection. rAAV transduction was assessed at 96 hours post-infection by FACS analysis, and the percentage of dead cells was simultaneously assessed by incorporation of propidium iodide.
These tripeptides are structurally related to chloroquine but have different lipid solubility and specificity for cysteine proteases (Seglen, 1983). These molecules decrease endosomal degradation of molecules by a mechanism different than altering pH.
Transduction of polarized airway epithelial cells and primary human fibroblasts. rAAV infection of fully differentiated bronchial cells was performed as described in Duan et al. (1998). For infections from the apical surface of the airway cells, 5 μl rAAV was mixed with 50 μl of culture media and applied directly onto the apical compartment of Millicell inserts (MOI=10,000 particles/cell). During apical infection, the basolateral side of the Millicell was continuously bathed in culture media. Gene transfer to the basal side was performed by inverting Millicell inserts and applying viral vector to the bottom of the supporting filter membrane in a 50 μl volume for 2 hours. Subsequently, Millicell inserts were returned to the upright position, in the continued presence of the original viral inoculum plus an additional 450 μl of media. For both apical and basolateral infections, rAAV containing media was removed after 24 hours and replaced with either fresh culture media (for the basal side) or exposed to air (for the apical side). To test the effect of different agents on the efficiency of AAV transduction in polarized airway cells, 1 μl of each solution was mixed with AAV prior to infection of airway epithelia. Agents were usually presented during the 24 hours AAV infection period unless indicated otherwise.

[2] = system: human bronchial epithelia; assay: Southern blot of Hirt DNA for rAAV genomes in polarized airway epithelia; details: hypotonic EGTA treatment alone, apical infection
Experimental: FIGS. 15A–C. Examination of rAAV endocytosis by Southern blot analysis of viral DNA. Hirt DNA from AV.GFP3ori infected or mock infected (Lanes 1 and 7 in both FIGS. 15A and 15B) human bronchial epithelia were extracted for a direct examination of viral genomes by Southern blotting against a P^32-labeled EGFP probe. FIG. 15A depicts viral binding studies in the presence and absence of LLnL with or without EGTA treatment prior to apical or basolateral infection for 1 hour at 4° C. Cell surface-bound virus was completely removed by trypsin (FIG. 15A, lanes 2 through 6). To determine the amount of the surface-bound rAVV, cells were infected with AV.GFP3ori for 1 hour at 4° C. and were not treated with trypsin prior to Hirt DNA extraction. Panel A: lane 8: apical AAV infection; lane 9: apical AAV infection in the presence of LLnL; lane 10: cells were pre-treated with hypotonic EGTA prior to apical infection in the presence of LLnL; lane 11: basolateral infection; lane 12: basolateral infection in the presence of LLnL. FIG. 15B depicts the results of studies evaluating rAAV internalization from either the apical or the basolateral surface in the presence or absence of LLnL, and the internalization from the apical surface after combined treatment with hypotonic EGTA and LLnL. To detect the net amount of the internalized viral genome, all samples in FIG. 15B were treated with trypsin just before Hirt DNA was harvested. The extent of the internalized virus at 4 hours (FIG. 15B, lanes 2 through 6) and 24 hours (FIG. 15B, lanes 8 through 12) incubation at 37° C. after infection is represented by the intensity of the 1.6 kb single stranded viral genome band. FIG. 15B; lane 2; apical AAV infection for 4 hours; lane 3: apical AAV infection in the presence of LLnL for 4 hours; lane 4: cells were pre-treated with hypotonic EGTA prior to apical infection in the presence of LLnL for 4 hours; lane 5: basal infection for 4 hours; lane 6: basolateral infection in the presence of LLnL for 4 hours; lane 8: apical infection for 24 hours; lane 9: apical infection in the presence of LLnL for 24 hours; lane 10: cells were pre-treated with hypotonic EGTA prior to apical infection in the presence of LLnL for 24 hours; lane 11: basolateral infection for 24 hours; lane 12: basolateral infection in the presence of LLnL for 24 hours. […]
Molecular analysis of rAAV viral genomes owing infection of polarized airway epithelial cultures. […] Following binding, the extent of viral internalization was assessed by continuing incubations in the presence of virus at 37° C. for 4–24 hours. […] The 1.6 kb single stranded viral DNA, the 2.7 kb double stranded circular intermediate, and the 4.7 kb double stranded replication from viral genome were detected with a transgene EGFP specific probe at 5×10^6 cpm/ml. […]

[3] = system: polarized human bronchial epithelial cells; details: for rAAV transduction from the basolateral surface with ubiquitin ligase (E3) inhibitors: both dipeptides combined, 2 mM pretreatment 60 minutes, 0.2 mM during 24 hours infection; for rAAV transduction from the apical (mucosal) surface, in words: apical infection, agent at time of infection (LLnL 40 μM)
Experimental: FIGS. 7A and 7B. Proteasome inhibitors differentially augment rAAV transduction from the apical or basolateral surfaces of airway epithelia. The efficiency and time course of rAAV transduction were evaluated in polarized airway epithelial cultures following infection with rAV.GFPori3 (MOI=10,000 particles/cell) in the presence or absence of 40 μM LLnL. Transgene expression was monitored by indirect fluorescence microscopy at the indicted time points by quantifying the mean number of GFP positive cells per 10× field (mean +/−SEM of 3 independent samples for each time point). The effect of LLnL treatment was compared between matched sets of tissue samples at each time point following infection from the apical (FIG. 7A) or basolateral (FIG. 7B) surfaces. The photomicrographs on the right side of each figure illustrate representative 20× fields for the 3 and 22 day post-infection time points.
FIG. 9. Effects of different agents on AAV transduction from the basal surface of polarized bronchial epithelia. Fully differentiated human bronchial airway epithelia were treated with the indicated agents at the time of AAV infection (MOI=10,000 particles/cell) from the basolateral surface. […] Since most of the tested agents (except for hydroxyurea) were dissolved in DMSO, a vehicle control of 1% (vol/vol) DMSO was also performed to exclude the possibility of a non-specific effect. GFP expression was monitored at 48 hours post-infection by counting the number of GFP positive cells per 10 random 10× fields in the culture dishes. The data represent the mean +/−SEM of three independent infections for each tested chemical.
FIG. 10. The proteasome inhibitor LLnL preferentially induces AAV transduction in ciliated cells. The cell types transduced by AAV were examined by alkaline phosphatase staining 3 days following basolateral infection of polarized epithelial cultures with AV.Alkphos infection (MOI=10,000 particles/cell) in the presence of or absence of 40 μM LLnL. […] 8 μm paraffin sections were used to histologically quantify the types of cells transduced. Three classifications were used, ciliated cells (with alkphos expression localized to the apical membrane and cilia), basal cells residing in the lower half of the epithelium with no contact with the lumen, and non-ciliated, columnar cells. Panel C (without LLnL) and D (with LLnL) show representative neutral red counter-stained cross-sections for each condition. The numbers of alkphos stained cells/2000 epithelial cells for the various cell types transduced by AAV are presented in panel E (mean +/−SEM from three independent Millicell insert samples).
FIGS. 11A and 11B. Optimization of LLnL-enhanced transduction in polarized bronchial epithelia. Differentiated transwell cultures were infected with AV.GFP3ori (10,000 particles/cell) from either the basolateral (FIG. 11A) or the apical (FIG. 11B) surface with the indicated treatments involving LLnL and/or EGTA. All infections were carried out for 24 hours and GFP transgene expression was monitored by indirect fluorescent microscopy at the indicated times. Data represent the mean (+/−SEM, N=6) for each experimental condition. Experiments were performed in triplicate on transwells derived from samples obtained from two different patients. […]

[4] = confluent fibroblasts, AV.GFP3ori MOI 1000, 96 hours post-infection, brefeldin A 10 μg/ml, vinblastine 22 μM, cytochalasin B 1 μM, NH4Cl 2 mM, chloroquine 20 μm, LLnL 400 μM, Z-LLL 4 μM

SMILES: C[C@H]1CCC/C=C/[C@@H]2C[C@H](O)C[C@H]2[C@H](O)/C=C/C(=O)O1 [BFA, brefeldin A]
- rAAV transduction (GFP expression) compared to untreated rAAV infected cells [1, 4]: significant enhancement of rAAV transduction

SMILES: O=C(O)CN(CCOCCOCCN(CC(=O)O)CC(=O)O)CC(=O)O [EGTA]
- increase in persistence of AAV DNA [2]: less than 4 fold

SMILES: C[C@H](NC(=O)[C@@H](N)Cc1cnc[nH]1)C(=O)O [H-His-Ala-OH] (H-His-Ala-OH)
- rAAV transduction from the basolateral surface with ubiquitin ligase (E3) inhibitors [3]: enhanced rAAV transduction

SMILES: CC(C)C[C@H](N)C(=O)N[C@@H](C)C(=O)O [H-Leu-Ala-OH] (H-Leu-Ala-OH)
- rAAV transduction from the basolateral surface with ubiquitin ligase (E3) inhibitors [3]: enhanced rAAV transduction

SMILES: Cl.N [NH4Cl]
- rAAV transduction (GFP expression) compared to untreated rAAV infected cells [1]: significantly inhibited rAAV transduction

SMILES: CC[C@@]1(O)C(=O)OCc2c1cc1n(c2=O)Cc2cc3ccccc3nc2-1 [camptothecin]
- rAAV transduction from the apical (mucosal) surface, in words [3]: none of these agents facilitated rAAV transduction from the apical surface

SMILES: CCN(CC)CCCC(C)Nc1ccnc2cc(Cl)ccc12 (stereo not drawn) [chloroquine]
- rAAV transduction (GFP expression) compared to untreated rAAV infected cells [1, 4]: significantly inhibited rAAV transduction

SMILES: C=C1[C@@H](C)[C@H]2[C@H](Cc3ccccc3)NC(=O)[C@]23OC(=O)/C=C/[C@H](O)CCC[C@@H](C)C/C=C/[C@H]3[C@@H]1O [cytochalasin B]
- rAAV transduction (GFP expression) compared to untreated rAAV infected cells [1, 4]: significant decrease in rAAV transduction

SMILES: COc1cc([C@@H]2c3cc4c(cc3[C@@H](O[C@@H]3O[C@@H]5CO[C@@H](C)O[C@H]5[C@H](O)[C@H]3O)[C@H]3COC(=O)[C@H]23)OCO4)cc(OC)c1O [etoposide]
- rAAV transduction from the apical (mucosal) surface, in words [3]: none of these agents facilitated rAAV transduction from the apical surface

SMILES: O=c1c(-c2ccc(O)cc2)coc2cc(O)cc(O)c12 [genistein]
- rAAV transduction from the apical (mucosal) surface, in words [3]: none of these agents facilitated rAAV transduction from the apical surface

SMILES: NC(=O)NO [hydroxyurea]
- rAAV transduction from the apical (mucosal) surface, in words [3]: none of these agents facilitated rAAV transduction from the apical surface

SMILES: CC[C@]1(O)C[C@@H]2CN(CCc3c([nH]c4ccccc34)[C@@](C(=O)OC)(c3cc4c(cc3OC)N(C)[C@H]3[C@@](O)(C(=O)OC)[C@H](OC(C)=O)[C@]5(CC)C=CCN6CC[C@]43[C@@H]65)C2)C1 [vinblastine, vinblastine sulfate]
- rAAV transduction (GFP expression) compared to untreated rAAV infected cells [1, 4]: little effect on rAAV transduction; also recorded: did not inhibit rAAV-2 transduction
